Patent publication EP2241555A1, “New RAC1 inhibitors as potential pharmacological agents for heart failure treatment” (UNIVERSITA' DEGLI STUDI DI MILANO, priority 2009, dated 2010)
Read-outs that look alike come from different tables or passages of the source.

How the values were obtained:
[1] = PAMPA (Parallel Artificial Membrane Permeability Assay); format: in vitro ADME; conditions: start concentration 250 µM, diffusion period 16 h
Procedure: (§1) The permeation characteristics of the Rac1 inhibitors were determined first in the artificial system PAMPA (Parallel Artificial Membrane Permeability Assay) which uses a membrane covered with a lipid to simulate the lipid bilayer of various cell types, including intestinal epithelium and second in vitro across Caco2, a human colon carcinoma cell line seeded as monolayers onto polycarbonate membranes. The PAMPA is able to predict the ability of a compound to permeate by a passive transcellular transport through an artificial lipid layer assembled on a membrane and also allows a classification into low (flux <20%), medium (20%≤ flux ≤70%), and high (flux >70%) absorbing substances. The Caco2 assay provides a well-established in vitro model to predict the human intestinal absorption.
The flux rate of the compounds of the invention and the reference NSC23766 was measured from a donor compartment to an acceptor compartment across the lipid layer at a start concentration of 250 µM over a diffusion period of 16 h.

HL-1 cells = assay: Apoptosis of ischemic HL-1 cardiomyocytes (TUNEL assay, flow cytometer); format: cell-based, mouse; conditions: 100 µM; for Relative rate of apoptosis normalised to control [%]: 8 h ischemia (glucose deficient medium + hydrogen peroxide), 8h Ischemia alone 701.6, 8h Control 100
Procedure: To establish a cardiomyocytes based apoptosis assay, which mimics the post-ischemic damage observed after myocardial infarction, we have utilized a cardiac muscle cell line, HL-1 cells, derived from the AT-1 mouse atrial cardiomyocyte tumor lineage. The HL-1 cells were incubated in glucose deficient medium in the presence of hydrogen peroxide and either in presence or absence of compounds of the invention Apoptosis rate of ischemic HL-1 cells was normalised to the apoptosis rate of the 8h control cells under non-ischemic conditions, thus incubated with normal concentration of glucose in the absence of hydrogen peroxide. Both non-ischemic and ischemic HL-1 cultures were harvested after 8 hours. […] The apoptotic rates were then evaluated by TUNEL assay, a method for detecting DNA strand breaks in apoptotic cells by flow cytometer The solvent of the compounds, i.e DMSO, has no influence on the apoptosis rate. […] Effect of newly synthesized compounds with Rac1 inhibitory activity on apoptosis rate in HL-1 cells normalized to control (TUNEL-assay) The data are representative of two experiments.

[2] = tissue homogenate, 60 min, 10 µM
Procedure: (§3) The basic incubation mixture with total volume of 500 µl consisted of the following components. 100 µl liver homogenate, compound in DMSO (dimethyl sulfoxide) and 1 mM NADPH (reduced nicotinamide adenine dinucleotide phosphate), 1 mM UDPGA (uridine 5'-diphosphoglucuronic acid), 1 mM PAPS (3'-phosphoadenosine-5'-phosphosulfate) and 1 mM GSH (glutathione). The substrate concentration used was 10 µM. Two parallel incubations, one with cofactors and one without, were made. Final DMSO concentration in the incubation was 1 µM. […] Reaction was started by addition of a cofactor mixture and stopped by adding 250 µl of ice-cold acetonitrile.

[3] = tested on: primary rat cardiomyocytes; assay: Resazurine cytotoxicity assay (metabolic activity), primary rat cardiomyocytes; format: cell-based; conditions: for MVC / EC50: 24 h; for MVC: maximal viability concentration; for Cytotoxicity-Classification: 24 h exposure; for EC50: Cardiomyocyte, metabolic activity
Procedure: (§2) For a pre-screening of the compounds they were first tested in human hepatocellular carcinoma cells (HepG2 cells)for 24 h and to gain further information about the cytotoxic potential more specific target tissues like the mouse cardiomyocytes HL-1 and primary rat cardiomyocytes were used additionally. […] The toxicity classification has been determined by using drugs currently utilized in clinic with known toxicity profile

Rac1 [4] = molecular target: T1, Rac1 (Homo sapiens, UniProt P63000); assay: G-LISA assay of intracellular Rac1-GTP in PDGF-BB stimulated human smooth muscle cells; format: cell-based; conditions: for remaining activity at 50 µM: Concentration 50 µm, 4 hours incubation, then PDGF-BB 10 ng/ml, Rac1-GTP detected relative to control (100), lower = more inhibition, read-out: Rac1 inhibitory activity (% vs control); for inhibitory action on Rac1 activity: G-LISA, 50 µM, statement in words
T1 construct: endogenous in cells; host or cells: human cultured smooth muscle cells, stimulated with PDGF-BB
Source text: The intracellular amount of Rac1-GTP has been determined using the GLISA™ assay (Cytoskeleton, Inc). The GLISA™ assay uses a 96-well plate coated with RBD domain of Rac1-family effector protein PAK1. […] A significant inhibition on Rac1 activity should decrease the intracellular levels of Rac1-GTP and therefore reduce the percentage of Rac1-GTP detected compared to control untreated cells.

Rac1 [5] = molecular target: T1, Rac1; assay: Classic pull down assay of Rac1-GTP in human cells; format: cell-based; conditions: 50 and 100 µM; Figure 2
Procedure: Thus, a classic pull down assay was also performed in human cells incubated with 50 and 100 µM concentration of CWB024/02054

[6] = tested on: major drug metabolising CYPs (including CYP2C19, CYP2D6, CYP3A4); assay: Inhibition of major drug metabolising CYP activities
Source text: The probe metabolites as in experimental For CYP2C19, a=omeprazole demethylation and b=omeprazole 5-hydroxylation; for CYP3A4, a=omeprazole 3-hydroxylation, b= omeprazole sulfonation, c=testosterone 6β-hydroxylation and d= midazolam 1'-hydroxylation.

HepG2 cells = assay: Resazurine cytotoxicity assay (metabolic activity), HepG2; format: cell-based, human; conditions: for MVC / EC50: HepG2, 24 h; for MVC: maximal viability concentration; for Cytotoxicity-Classification: HepG2, 24 h exposure; for EC50: Homo sapiens, metabolic activity, read-out: EC50
Procedure: as §2

[7] = Substrate depletion in human liver microsomes and in vitro - in vivo extrapolation; format: in vitro ADME; conditions: for CLh: hepatic clearance; for CLh / CLint / CLtot: extrapolated to human from substrate depletion (1 µM, 60 min); for half-life at 1 µM: human, human liver microsomes; for CLint: intrinsic clearance (whole liver); for CLtot: total (systemic) clearance
Procedure: The remaining peak areas after 60 minutes incubation was also determined after incubation with increasing concentrations of compounds CWB021/01039 and CWB024/02054. […] The disappearances for both study compounds were also clearly cofactor dependent and thus metabolism related Calculations of pharmacokinetic (PK) parameters on the basis of substrate depletion for both study compounds (1 µM, 60 min time point) in human liver microsomes are shown in Table 6. Table 6. Kinetic in vitro - in vivo extrapolations of study compound clearances and half-lifes in human, wherein: intrinsic clearance (whole liver) = CLint; hepatic clearance = CLH; total (systemic) clearance = CLtotal; half-life = t1/2.

CYP2D6 = CYP2D6 (Homo sapiens, UniProt P10635); assay: Inhibition of CYP2D6 activity; format: biochemical; conditions: read-out: CYP2D6 activity inhibited by
HL-1 = assay: Resazurine cytotoxicity assay (metabolic activity), HL-1; format: cell-based, mouse; conditions: for MVC / EC50: HL-1, 24 h; for MVC: maximal viability concentration; for Cytotoxicity-Classification: HL-1, 24 h exposure; for EC50: Mus musculus, metabolic activity
Procedure: as §2

[8] = Caco2 monolayer permeation; format: in vitro ADME, human; conditions: human, start concentration 50 µM; for Papp at 90 min, 50 µM: Caco-2, Caco2 monolayers
Procedure: as §1

Caco2 = Caco2 monolayer permeation; format: in vitro ADME, human; conditions: Caco2 monolayers, 90 min, start concentration 50 µM
Procedure: as §1

[9] = Metabolic stability and metabolite identification in liver homogenates with cofactors (LC/MS); conditions: liver homogenate with cofactors, 10 µM substrate, 60 min
Procedure: as §3

[10] = 0.1 µM initial substrate concentration
[11] = 1 µM initial substrate concentration
[12] = 10 µM initial substrate concentration

Chain of CYP2D6 (P10635 whole entry): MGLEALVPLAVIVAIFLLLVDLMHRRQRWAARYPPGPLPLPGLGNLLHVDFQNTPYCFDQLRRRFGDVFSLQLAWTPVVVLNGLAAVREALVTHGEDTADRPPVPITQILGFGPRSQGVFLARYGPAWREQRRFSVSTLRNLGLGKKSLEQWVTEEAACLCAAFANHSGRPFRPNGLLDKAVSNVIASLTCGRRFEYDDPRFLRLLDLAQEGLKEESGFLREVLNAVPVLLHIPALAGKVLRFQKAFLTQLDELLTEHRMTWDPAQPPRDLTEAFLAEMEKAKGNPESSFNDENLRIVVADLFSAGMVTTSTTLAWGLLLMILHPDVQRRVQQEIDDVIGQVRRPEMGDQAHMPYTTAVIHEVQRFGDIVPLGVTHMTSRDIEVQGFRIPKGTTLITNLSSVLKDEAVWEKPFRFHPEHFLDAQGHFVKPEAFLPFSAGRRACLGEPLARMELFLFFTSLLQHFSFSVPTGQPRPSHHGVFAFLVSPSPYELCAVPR

Structure (SMILES) | PAMPA classification [1] | PAMPA flux [%] ± SD [1] [%] | Relative rate of apoptosis normalised to control [%] (HL-1 cells) | remaining LC/MS peak area (relative to 0 min incubation samples, %) [2] | MVC [3] [µM] | Cytotoxicity-Classification [3] | EC50 [3] [µM] | remaining activity at 50 µM (Rac1 [4]) [%] | inhibitory action on Rac1 activity (Rac1 [4]) | IC50 [6] [µM] | MVC (HepG2 cells) [µM] | Cytotoxicity-Classification (HepG2 cells) | EC50 (HepG2 cells) [µM] | remaining peak area after 60 minutes incubation [7, 10] [%] | remaining peak area after 60 minutes incubation [7, 11] [%] | remaining peak area after 60 minutes incubation [7, 12] [%] | MVC (HL-1) [µM] | Cytotoxicity-Classification (HL-1) | EC50 (HL-1) [µM] | Caco2 Classification (Caco2) | other results
CCN(CC)CCCC(C)Nc1nccc(Nc2ccc3[nH]ccc3c2)n1 (stereo not shown) [CWB024/02054, N2-(4-Diethylamino-1-methyl-butyl)-N4-(1H-indol-5-yl)-pyrimidine-2,4-diamine] | low (low (flux <20%)) | 6±2 | 319.4 | about 91% | 1.9 | ++ (10 µM < EC50 ≤ 100 µM, medium (++)) | 17 | 58.3 | significant end efficient inhibitory action | > 10 | 7.8 | ++ (10 µM < EC50 ≤ 100 µM, medium (++)) | 33 | 76 | 87 | 86 | 7.8 | ++ (10 µM < EC50 ≤ 100 µM, medium (++)) | 56 | high (compounds with a Papp >10 are predicted to be well absorbed (70 - 100%)) | reduction of relative apoptosis (HL-1 cells; versus 8 h ischemia): approximately 50%; reduced the intracellular content of Rac1-GTP (Rac1 [5]): over 90%; CLh [7]: 10.63 L/h; half-life at 1 µM [7]: 10.3 h; CLint [7]: 0.2 L/min; CLtot [7]: 10.81 L/h; inhibition at 10 µM (CYP2D6): 30%; Papp at 90 min, 50 µM [8]: 32.1 ± 12.4 ×10⁻⁶ cm/s
CCN(CC)CCCC(C)Nc1nccc(Nc2ccc3[nH]c(C)cc3c2)n1 (stereo not shown) [CWB021/01039, N2-(4-Diethylamino-1-methyl-butyl)-N4-(2-methyl-1H-indol-5-yl)-pyrimidine-2,4-diamine] | low (low (flux <20%)) | 5±1 | 511.6 | 33-41% | 31.3 | ++ (10 µM < EC50 ≤ 100 µM, medium (++)) | 13 | 81.1 | significant end efficient inhibitory action | > 10 | 7.8 | ++ (10 µM < EC50 ≤ 100 µM, medium (++)) | 21 | 69 | 81 | 95 | 31.2 | ++ (10 µM < EC50 ≤ 100 µM, medium (++)) | 24 | high (compounds with a Papp >10 are predicted to be well absorbed (70 - 100%)) | CLh [7]: 15.14 L/h; half-life at 1 µM [7]: 7.3 h; CLint [7]: 0.31 L/min; CLtot [7]: 15.32 L/h; inhibition at 10 µM (CYP2D6): 35%; Papp at 90 min, 50 µM [8]: 17.1 ± 12.5 ×10⁻⁶ cm/s
CCN(CC)CCCC(C)Nc1nccc(Nc2cnc3ccccc3c2)n1 (stereo not shown) [CWB022/02052, N2-(4-Diethylamino-1-methyl-butyl)-N4-quinolin-3-yl-pyrimidine-2.4-diamine] | medium (medium (20%≤ flux ≤70%)) | 34±4 | 607.8 | – | 7.8 | ++ (10 µM < EC50 ≤ 100 µM, medium (++)) | 15 | – | significant end efficient inhibitory action | – | 7.8 | ++ (10 µM < EC50 ≤ 100 µM, medium (++)) | 32 | – | – | – | 31.2 | ++ (10 µM < EC50 ≤ 100 µM, medium (++)) | 60 | medium (compounds with Papp between 1 and 10 are moderately absorbed (20 - 70%)) | remaining LC/MS peak area (relative to 0 min incubation samples, %) [9]: 5%; Papp at 1.5 h, 50 µM ([8]; Caco-2, Caco2 monolayers, 90 min): 8.9 ± 2.7 ×10⁻⁶ cm/s
